From patent publication US11767341B2, “Lincosamide antibiotics and uses thereof” (President and Fellows of Harvard College, priority 2017, dated 2023)
Converted amounts (≈) assume the structure as drawn. Read-outs that look alike come from different tables or passages of the source.

How the values were obtained:
Test in all cases: MIC determination
Assay type in all cases: cell-based
[1] = test system: E. coli MP-74 LptD mutant; conditions: Escherichia coli
K. pneumoniae ATCC 10031 = conditions: Klebsiella pneumoniae, ATCC10031
E. faecalis ATCC 29212 = conditions: Enterococcus faecalis, ATCC29212, read-out: MIC
S. pneumoniae ATCC 49619 = conditions: Streptococcus pneumoniae, ATCC49619; S. pneumoniae ATCC 49619; read-out: MIC
S. pyogenes ATCC 19615 = conditions: Streptococcus pyogenes, ATCC19615; S. pyogenes ATCC 19615; read-out: MIC
H. influenzae ATCC 49247 = conditions: Haemophilus influenzae, ATCC49247
E. coli ATCC 25922 = conditions: Escherichia coli
S. aureus ATCC 29213 = test system: S. aureus ATCC 29213
[2] = test system: S. aureus MP-549 msr(a) USA 300; conditions: Staphylococcus aureus, USA300, S. aureus MP-549 msr(a) USA 300
E. coli MP-9 ΔTolC = conditions: Escherichia coli
S. aureus BAA 977 iErmA = conditions: Staphylococcus aureus, BAA977
[3] = ATCC25922, E. coli ATCC 25922, read-out: MIC
[4] = Staphylococcus aureus, ATCC29213, S. aureus ATCC 29213, read-out: MIC
[5] = K. pneumoniae ATCC 10031, read-out: MIC
[6] = Staphylococcus aureus, ATCC29213

Structure (SMILES) | MIC [1] [µg/mL] | MIC (K. pneumoniae ATCC 10031) [µg/mL] | MIC (E. faecalis ATCC 29212) [µg/mL] | MIC (S. pneumoniae ATCC 49619) [µg/mL] | MIC (S. pyogenes ATCC 19615) [µg/mL] | MIC (H. influenzae ATCC 49247) [µg/mL] | MIC (E. coli ATCC 25922; [3]) [µg/mL] | MIC (S. aureus ATCC 29213; [4]) [µg/mL] | MIC [2] [µg/mL] | MIC (E. coli MP-9 ΔTolC) [µg/mL] | MIC (S. aureus BAA 977 iErmA) [µg/mL] | MIC (K. pneumoniae ATCC 10031; [5]) [µg/mL] | MIC (H. influenzae ATCC 49247; H. influenzae ATCC 49247, read-out: MIC) [µg/mL] | MIC (E. coli ATCC 25922; ATCC25922) [µg/mL] | MIC (S. aureus ATCC 29213; [6]) [µg/mL] | MIC (S. aureus ATCC 29213; S. aureus ATCC 29213) [µg/mL]
CSC1O[C@H]([C@H](NC(=O)[C@H]2NC[C@@H]3CC(c4ccc(C#N)cc4)=CCO[C@H]32)[C@H](C)Cl)C(O)[C@@H](O)[C@H]1O (stereo partly shown) [FSA-511033] | 64 (≈ 119 µM) | 64 (≈ 119 µM) | 2 (≈ 3.72 µM) | ≤ 0.06 | ≤ 0.06 | 64 (≈ 119 µM) | > 64 | 0.5 (≈ 0.929 µM) | 1 (≈ 1.86 µM) | 32 (≈ 59.5 µM) | – | – | – | – | – | –
CSC1O[C@H]([C@H](NC(=O)[C@H]2NC[C@@H]3C=C(C#Cc4cccc(F)c4)CCO[C@@H]23)[C@H](C)Cl)C(O)[C@@H](O)[C@H]1O (stereo partly shown) [FSA-510003] | 32 (≈ 57.7 µM) | – | 1 (≈ 1.8 µM) | 0.25 (≈ 0.45 µM) | 0.25 (≈ 0.45 µM) | – | – | 0.5 (≈ 0.901 µM) | – | > 64 | 0.25 (≈ 0.45 µM) | 16 (≈ 28.8 µM) | 16 (≈ 28.8 µM) | > 64 | – | –
CSC1O[C@H]([C@H](NC(=O)[C@H]2NC[C@@H]3C[C@H](c4ccc(C)cc4)CCO[C@H]32)[C@H](C)Cl)C(O)[C@@H](O)[C@H]1O (stereo partly shown) [FSA-512079c] | 16 (≈ 30.2 µM) | 16 (≈ 30.2 µM) | 2 (≈ 3.78 µM) | – | ≤ 0.12 | 16 (≈ 30.2 µM) | > 128 | – | 0.5 (≈ 0.945 µM) | 8 (≈ 15.1 µM) | – | – | – | – | 0.5 (≈ 0.945 µM) | –
CSC1O[C@H]([C@H](NC(=O)[C@H]2NC[C@@H]3CC(c4ccc(C)cc4)=CCO[C@H]32)[C@H](C)Cl)C(O)[C@@H](O)[C@H]1O (stereo partly shown) [FSA-511019] | 64 (≈ 121 µM) | – | 4 (≈ 7.59 µM) | 0.25 (≈ 0.474 µM) | 0.125 (≈ 0.237 µM) | 64 (≈ 121 µM) | > 64 | – | 0.5 (≈ 0.949 µM) | 32 (≈ 60.7 µM) | – | > 64 | – | – | 0.5 (≈ 0.949 µM) | –
CSC1O[C@H]([C@H](NC(=O)[C@H]2NC[C@@H]3C[C@@H](C4CCNCC4)CCO[C@H]32)[C@H](C)Cl)C(O)[C@@H](O)[C@H]1O (stereo partly shown) [FSA-512011] | > 256 | – | 64 (≈ 123 µM) | 1 (≈ 1.92 µM) | 4 (≈ 7.66 µM) | > 256 | – | 8 (≈ 15.3 µM) | 8 (≈ 15.3 µM) | > 256 | – | – | – | > 256 | – | –
CSC1O[C@H]([C@H](NC(=O)[C@H]2NC[C@@H]3C[C@@H](C4CCN(C)CC4)CCO[C@H]32)[C@H](C)Cl)C(O)[C@@H](O)[C@H]1O (stereo partly shown) [FSA-512012] | > 256 | – | 64 (≈ 119 µM) | 1 (≈ 1.87 µM) | 4 (≈ 7.46 µM) | > 256 | – | 8 (≈ 14.9 µM) | 8 (≈ 14.9 µM) | > 256 | – | – | – | > 256 | – | –
CSC1O[C@H]([C@H](NC(=O)[C@H]2NC[C@@H]3C[C@@H](c4ccc(C#N)cc4)CCO[C@H]32)[C@H](C)Cl)C(O)[C@@H](O)[C@H]1O (stereo partly shown) [FSA-511046] | 32 (≈ 59.3 µM) | 16 (≈ 29.6 µM) | 1 (≈ 1.85 µM) | ≤ 0.06 | ≤ 0.06 | 16 (≈ 29.6 µM) | > 64 | – | 0.5 (≈ 0.926 µM) | 8 (≈ 14.8 µM) | – | – | – | – | – | 1 (≈ 1.85 µM)
CSC1O[C@H]([C@H](NC(=O)[C@@H]2[C@@H]3OCC=CC[C@H]3CN2C2CC2)[C@H](C)Sc2ccc(-c3cccnc3)cc2)C(O)C(O)[C@H]1O (stereo partly shown) [FSA-214009a] | – | – | > 64 | 4 (≈ 6.37 µM) | 4 (≈ 6.37 µM) | – | > 64 | 64 (≈ 102 µM) | – | – | – | – | – | – | – | –
CSC1O[C@H]([C@H](NC(=O)[C@H]2NC[C@@H]3C=C(c4ccc(C)cc4)CCO[C@@H]23)[C@H](C)Cl)C(O)[C@@H](O)[C@H]1O (stereo partly shown) [FSA-512075] | 64 (≈ 121 µM) | – | 2 (≈ 3.79 µM) | 0.25 (≈ 0.474 µM) | 0.25 (≈ 0.474 µM) | 64 (≈ 121 µM) | > 256 | 0.5 (≈ 0.949 µM) | 0.25 (≈ 0.474 µM) | 32 (≈ 60.7 µM) | – | – | – | – | – | –
CSC1O[C@H]([C@H](NC(=O)[C@H]2NC[C@@H]3CC(c4cccc5cnccc45)=CCO[C@H]32)[C@H](C)Cl)C(O)[C@@H](O)[C@H]1O (stereo partly shown) [FSA-510006] | 64 (≈ 113 µM) | > 64 | 16 (≈ 28.4 µM) | 1 (≈ 1.77 µM) | 0.5 (≈ 0.886 µM) | > 64 | – | 8 (≈ 14.2 µM) | – | > 64 | 16 (≈ 28.4 µM) | – | – | > 64 | – | –
CSC1O[C@H]([C@H](NC(=O)[C@H]2NC[C@@H]3C[C@@H](c4ccc(C)cc4)CCO[C@H]32)[C@H](C)Cl)C(O)[C@@H](O)[C@H]1O (stereo partly shown) [FSA-512079b] | 16 (≈ 30.2 µM) | 16 (≈ 30.2 µM) | 1 (≈ 1.89 µM) | – | ≤ 0.12 | 16 (≈ 30.2 µM) | > 128 | – | 0.5 (≈ 0.945 µM) | 8 (≈ 15.1 µM) | – | – | – | – | 0.5 (≈ 0.945 µM) | –
